Patent US10766864B2, “Morphinan derivatives for the treatment of neuropathic pain” (Nektar Therapeutics, priority 2015, dated 2020)
Like-named read-outs stand apart in the source and are kept apart here.

Columns and labels:
[1] = biological target: mu opioid receptor (MOR) (Homo sapiens (Human), UniProt P35372); assay: Competitive radioligand binding at MOR ([3H] Naloxone)
Method: (§1) Receptor Binding at MOR and NMDA.
(§2) Affinities of various compounds were measured in vitro using competitive radioligand binding assays. Serial dilutions of test compounds were incubated with membranes prepared from CHO-K1 cells expressing the mu opioid receptor (MOR; for opioid receptor binding) or rat forebrain membranes (for NMDA receptor binding). 2 nM [^3H] Naloxone (MOR) or 0.2 nM [^3H] MK801 (NMDA) were used as the specific, competitive radioligands. 10 uM Naloxone (MOR), or 10 uM MK801 (NMDA) was used to determine non-specific binding. Bound radioactivity was measured using a scintillation counter & IC50 values for test compounds were determined by non-linear regression analysis using a one-site competition model (Graph Pad Prizm). Due to each test compound being solubilized in a buffered system for the assay, the results presented herein reflect the free base activity.

[2] = biological target: NMDA receptor; assay: Competitive radioligand binding at NMDA receptor ([3H] MK801), rat forebrain membranes; conditions: 0.2 nM [3H] MK801, reflects free base activity
Method: as §1, §2

[3] = membranes from CHO-K1 cells expressing MOR, 2 nM [3H] Naloxone, reflects free base activity, read-out: MOR IC50

Row | SMILES | IC50 [1, 3] [nM] | IC50 [2] [nM] | IC50 [1] [nM]
1 | COCCOCCOCCO[C@H]1CC[C@H]2[C@H]3Cc4ccc(OC)cc4[C@@]2(CCN3C)C1 [Compound 1, (6α)-3-methoxy-6-{2-[2-(2-methoxyethoxy)ethoxy]ethoxy}-17-methylmorphinan] | > 1000 | > 10000 | 
2 | COCCOCCOCCOCCOCCO[C@H]1CC[C@H]2[C@H]3Cc4ccc(OC)cc4[C@@]2(CCN3C)C1 [Compound 2, (6α)-3-methoxy-17-methyl-6-(2,5,8,11,14-pentaoxahexadecan-16-yloxy)morphinan] | > 1000 | > 10000 | 
3 | COCCOCCOCCN1CC[C@]23CC(=O)CC[C@H]2[C@H]1Cc1ccc(OC)cc13 [Compound 4, 3-methoxy-17-{2-[2-(2-methoxyethoxy)ethoxy]ethyl}morphinan-6-one] | > 1000 | > 10000 | 
4 | COCCOCCN1CC[C@]23CC(=O)CC[C@H]2[C@H]1Cc1ccc(OC)cc13 [Compound 5, 3-methoxy-17-[2-(2-methoxyethoxy)ethyl]morphinan-6-one] |  | > 10000 | 100 to 1000
5 | COCCOCCOCCN1CC[C@]23CC(=O)CC[C@H]2[C@H]1Cc1ccc(O)cc13 [Compound 6, 3-hydroxy-17-{2-[2-(2-methoxyethoxy)ethoxy]ethyl}morphinan-6-one] |  | > 10000 | 100 to 1000
6 | COCCOCCOCCOCCOCCOc1ccc2c(c1)[C@]13CCN(C)[C@H](C2)[C@@H]1CCC(=O)C3 [Compound 8, 17-methyl-3-(2,5,8,11,14-pentaoxahexadecan-16-yloxy)morphinan-6-one] | > 1000 | > 10000 | 
7 | COCCOCCOCCO[C@H]1CC[C@H]2[C@H]3Cc4ccc(O)cc4[C@@]2(CCN3C)C1 [Compound 9, (6α)-6-{2-[2-(2-methoxyethoxy)ethoxy]ethoxy}-17-methylmorphinan-3-ol] |  | > 10000 | 10 to 100
8 | COCCOCCOCCOCCOCCO[C@H]1CC[C@H]2[C@H]3Cc4ccc(O)cc4[C@@]2(CCN3C)C1 [Compound 10, (6α)-17-methyl-6-(2,5,8,11,14-pentaoxahexadecan-16-yloxy)morphinan-3-ol] | 100 to 1000 | > 10000 | 
9 | COCCN1CC[C@]23CCCC[C@H]2[C@H]1Cc1ccc(OC)cc13 [Compound 11, 3-methoxy-17-(2-methoxyethyl)-morphinan] |  | 1000 to 10000 | 100 to 1000
10 | COCCOCCOCCN1CC[C@]23CCCC[C@H]2[C@H]1Cc1ccc(OC)cc13 [Compound 13, 3-methoxy-17-{2-[2-(2-methoxyethoxy)ethoxy]ethyl}-morphinan] | > 1000 | > 10000 | 
11 | COCCOCCOCCOCCOCCOc1ccc2c(c1)[C@@]13CCCC[C@H]1[C@@H](C2)N(C)CC3 [Compound 14, 17-methyl-3-(2,5,8,11,14-pentaoxahexadecan-16-yloxy)morphinan] | > 1000 | > 10000 | 
12 | CCNC(=O)N1CC[C@]23CCCC[C@H]2[C@H]1Cc1ccc(OC)cc13 [Compound 17, N-ethyl-3-methoxymorphinan-17-carboxamide] | > 1000 | > 10000 | 
13 | COCCOc1c(OC)ccc2c1[C@@]13CCCC[C@H]1[C@@H](C2)N(C)CC3 [Compound 21, 3-methoxy-4-(2-methoxyethoxy)-17-methylmorphinan] |  |  | 100 to 1000
14 | COCCNC(=O)Nc1ccc2c(c1)[C@@]13CCCC[C@H]1[C@@H](C2)N(C)CC3 [Compound 23, 1-(2-methoxyethyl)-3-(17-methylmorphinan-3-yl)urea] |  | > 10000 | 100 to 1000
15 | COCCOCCOCCOCCOCCOCCNc1nc2cc3c(cc2s1)C[C@@H]1[C@@H]2CCCC[C@]32CCN1C [Compound 70, (4aR,5R,11bR)-14-methyl-N-(2,5,8,11,14,17-hexaoxanonadecan-19-yl)-2,3,4,4a,5,6-hexahydro-1H-5,11b-(epiminoethano)phenanthro[3,2-d][1,3]thiazol-9-amine] |  | > 10000 | 
